Assay results: ChEMBL document CHEMBL5150014, “Discovery and Development of Dolastatin 10-Derived Antibody Drug Conjugate Anticancer Drugs” (J Nat Prod, 2022)
Starred links: 1 amine or outer side, 2 acyl side, 3 side chain; linkers in the order of their positions; H or OH if unused. Non-standard residues stand in square brackets, D forms with d. Residues, ends and D or L forms follow the SMILES beside them. *: point of attachment. X2 = CO[C@H]([C@@H](C)C(=O)[*:2])[C@@H]1C[C@@H]2C[C@@H]2N1[*:1]; Dolaproine = CO[C@@H]([C@@H]1CCCN1)[C@@H](C)C(=O)O; Abu(3S-N3) = C[C@H](N=[N+]=[N-])[C@H](N)C(=O)O; X6 = C/C(=N\OCC(=O)*)c1ccc(C[C@H](N)C(=O)O)cc1; Dil = CC[C@H](C)[C@H](NC)[C@@H](CC(=O)O)OC; X5 = CCCCCCCCCCN(C)[C@H](C(=O)*)C(C)C; Phe(2-F) = N[C@@H](Cc1ccccc1F)C(=O)O; NMeV = CN[C@H](C(=O)O)C(C)C

Tests used:
[1] = system: Panel NCI-60 (60 carcinoma cell lines); assay: Cytotoxicity against human Panel NCI-60 (60 carcinoma cell lines) assessed as cell growth inhibition; type: functional, cell-based
Tubulin [2] = assay: Binding affinity to tubulin (unknown origin); type: protein-complex assay, Homo sapiens
HeLa = assay: Cytotoxicity against human HeLa cells assessed as cell growth inhibition; type: functional
SK-OV-3 = assay: Cytotoxicity against human SK-OV-3 cells assessed as reduction in cell viability incubated for 96 hrs by PrestoBlue cell viability assay; type: functional, cell-based; settings: SK-OV-3, 96 h
HeLa S3 = assay: Cytotoxicity against human HeLa S3 cells assessed as reduction in cell viability incubated for 4 days by propidium iodide staining based fluorescence analysis; type: functional; settings: HeLa S3, 96 h
HT-29 [3] = assay: Anticancer activity against human HT-29 assessed as reduction in cell viability incubated for 96 hrs by microculture tetrazolium assay; type: functional, cell-based; settings: HT-29, 96 h
ASPC1 = assay: Cytotoxicity against human ASPC1 cells assessed as cell growth inhibition incubated for 72 hrs by CellTiter-Glo assay; type: functional
SK-BR-3 = assay: Cytotoxicity against human SK-BR-3 cells assessed as cell growth inhibition incubated for 72 hrs by CellTiter-Glo assay; type: functional
HL-60 = assay: Cytotoxicity against P-gp negative human HL-60 cells assessed as reduction inc cell viability; type: functional, cell-based
HT-29 [4] = assay: Cytotoxicity against human HT-29 cells assessed as cell growth inhibition; type: functional, cell-based
[5] = Toxicity in mouse assessed as maximum tolerated dose; settings: in vivo
HCT-116 = assay: Cytotoxicity against human HCT-116 cells assessed as reduction inc cell viability; type: functional, cell-based
H3396 = assay: Cytotoxicity against human H3396 cells assessed as cell growth inhibition; type: functional, cell-based
KARPAS-299 = assay: Cytotoxicity against human KARPAS-299 cells assessed as reduction in cell viability incubated for 5 days by Presto blue dye based assay; type: functional; settings: KARPAS-299, 120 h
NCI-H446 [6] = assay: Anti-tumor activity against human NCI-H446 cells xenografted in SCID mouse assessed as increase in median survival time at 450 microg/kg, iv (Rvb= 42 day); type: functional; settings: dose 450 µg/kg
leukaemia cell line = assay: Cytotoxicity against human leukaemia cell line assessed as cell growth inhibition; type: functional
NCI-H69 = assay: Anticancer activity against human NCI-H69 cells assessed as cell growth inhibition; type: functional, cell-based
[7] = Toxicity in dog assessed as maximum tolerated dose; parameters: species or system Canis lupus familiaris; settings: in vivo
NCI-H460 = assay: Anticancer activity against human NCI-H460 cells assessed as growth inhibition; type: functional
OVCAR-3 = assay: Anticancer activity against human OVCAR-3 cells assessed as growth inhibition; type: functional
NCI-H446 [8] = assay: Anti-tumor activity against human NCI-H446 cells xenografted in SCID mouse assessed as log increase in apoptosis at 450 microg/kg, iv measured after 96 hrs; type: functional; settings: dose 450 µg/kg
L1210 = assay: Cytotoxicity against mouse L1210 cells assessed as cell growth inhibition measured after 24 hrs; type: functional, cell-based; settings: L1210, 24 h
KM-20L2 = assay: Anticancer activity against human KM-20L2 cells assessed as growth inhibition; type: functional
SF-295 = assay: Anticancer activity against human SF-295 cells assessed as growth inhibition; type: functional
Tubulin [9] = assay: Inhibition of tubulin (unknown origin) polymerization assessed as reduction in microtubule formation measured for 20 mins by spectrophotometric analysis; type: protein-complex assay, Homo sapiens
NCI-H446 [10] = assay: Anticancer activity against human NCI-H446 cells assessed as cell growth inhibition; type: functional, cell-based
Tubulin [11] = assay: Inhibition of tubulin (unknown origin) polymerization assessed as reduction in microtubule formation preincubated for 15 mins followed by GTP addition and measured for 20 mins by spectrophotometric analysis; type: protein-complex assay, Homo sapiens
SK-MEL-5 = assay: Anticancer activity against human SK-MEL-5 cells assessed as growth inhibition; type: functional
A498 = assay: Anticancer activity against human A498 cells assessed as growth inhibition; type: functional
NCI-H82 = assay: Anticancer activity against human NCI-H82 cells assessed as cell growth inhibition; type: functional, cell-based
NCI-H510A = assay: Anticancer activity against human NCI-H510A cells assessed as cell growth inhibition; type: functional, cell-based

Work on CC[C@H](C)[C@@H]([C@@H](CC(=O)N1CCC[C@H]1[C@H](OC)[C@@H](C)C(=O)NCCc1ccccn1)OC)N(C)C(=O)[C@@H](NC(=O)[C@H](C(C)C)N(C)C)C(C)C yielded a GI50 [1] of 0.85 nM and an IC50 (Tubulin [2]) of 1.2 nM.
With CC[C@H](C)[C@@H]([C@@H](CC(=O)NC[C@H]1O[C@H](C(=O)N[C@@H](Cc2ccccc2)c2nccs2)[C@@H](OC)[C@@H]1OC)OC)N(C)C(=O)[C@@H](NC(=O)[C@H](C(C)C)N(C)C)C(C)C the GI50 (HeLa) was 0.01 nM.
In the case of CC[C@H](C)[C@@H]([C@@H](CC(=O)N1CCC[C@H]1[C@H](OC)[C@@H](C)C(=O)N[C@@H](Cc1ccccc1)c1nccs1)OC)N(C)C(=O)[C@@H](NC(=O)[C@H](C(C)C)N(C)CC(O)C(O)C(O)C(O)CN=[N+]=[N-])C(C)C (stereo partly specified), the IC50 (SK-OV-3) is reported as less than 1 nM.
With CC[C@H](C)[C@@H]([C@@H](CC(=O)N1CCC[C@H]1[C@H](OC)[C@@H](C)C(=O)OC[C@@H](O)Cc1ccccc1)OC)N(C)C(=O)[C@@H](NC(=O)[C@H](C(C)C)N(C)C)[C@@H](C)CC the IC50 (HeLa S3) was 2.9 nM.
For C#COCC(O)C(O)C(O)C(O)CN(C)[C@H](C(=O)N[C@H](C(=O)N(C)[C@@H]([C@@H](C)CC)[C@@H](CC(=O)N1CCC[C@H]1[C@H](OC)[C@@H](C)C(=O)N[C@@H](Cc1ccccc1)c1nccs1)OC)C(C)C)C(C)C (stereo partly specified), the IC50 (SK-OV-3) was 1 nM.
With CC[C@H](C)[C@@H]([C@@H](CC(=O)N1CCC[C@H]1[C@H](OC)[C@@H](C)C(=O)O[C@H](CO)Cc1ccccc1)OC)N(C)C(=O)[C@@H](NC(=O)[C@H](C(C)C)N(C)C)[C@@H](C)CC the IC50 (HeLa S3) was 2.1 nM.
Compound CC[C@H](C)[C@H]1[C@H](OC)CC(=O)N2CCC[C@H]2[C@H](OC)[C@@H](C)C(=O)N[C@@H](Cc2ccccc2)c2nc(cs2)C(=O)O[C@H](C)[C@H](N(C)C)C(=O)N[C@@H](C(C)C)C(=O)N1C has an IC50 (HT-29 [3]) of 58.5 nM.
In the case of CC[C@H](C)[C@@H]([C@@H](CC(=O)N1[C@H]2C[C@H]2C[C@H]1[C@H](OC)[C@@H](C)C(=O)N[C@@H](Cc1ccccc1F)C(=O)O)OC)N(C)C(=O)[C@@H](NC(=O)[C@@H](NC)C(C)C)C(C)C (H-[NMeV]V[Dil][X2][Phe(2-F)]-OH), the GI50 (ASPC1) is reported as 1750 nM and the GI50 (SK-BR-3) is reported as 47.7 nM.
CC[C@H](C)[C@@H]([C@@H](CC(=O)N1CCC[C@H]1[C@H](OC)[C@@H](C)C(=O)N[C@@H](Cc1ccccc1)C(=O)O)OC)N(C)C(=O)[C@@H](NC(=O)[C@@H](NC)C(C)C)C(C)C (HELM PEPTIDE1{[meV].V.[CC[C@H](C)[C@@H]([C@@H](CC(=O)[*:2])OC)N(C)[*:1]].[CO[C@H]([C@@H](C)C(=O)[*:2])[C@@H]1CCCN1[*:1]].F}$$$$V2.0) showed an IC50 (HL-60) of 137 nM, an IC50 (HT-29 [4]) of 10 nM and an MTD [5] of 1 mg/kg. The IC50 (HCT-116) was 2880 nM and the IC50 (H3396) was 105 nM.
CCCCCCCCCCN(C)[C@H](C(=O)N[C@H](C(=O)N(C)[C@@H]([C@@H](C)CC)[C@@H](CC(=O)N1CCC[C@H]1[C@H](OC)[C@@H](C)C(=O)N[C@@H](Cc1ccccc1)C(=O)O)OC)C(C)C)C(C)C (X5-V[Dil][Dolaproine]F-OH) showed an IC50 (HL-60) of 1.8 nM.
For CC[C@H](C)[C@@H]([C@@H](CC(=O)N1CCC[C@H]1[C@H](OC)[C@@H](C)C(=O)N[C@@H](Cc1ccccc1)C(=O)O)OC)N(C)C(=O)[C@@H](NC(=O)[C@H](C(C)C)N(C)C(=O)CO/N=C(\C)c1ccc(C[C@H](N)C(=O)O)cc1)[C@H](C)N=[N+]=[N-] (X6-[NMeV][Abu(3S-N3)][Dil][Dolaproine]F-OH), the IC50 (KARPAS-299) was 217 nM.
In the case of CC[C@H](C)[C@@H]([C@@H](CC(=O)N1CCC[C@H]1[C@H](OC)[C@@H](C)C(=O)N[C@@H](Cc1ccccc1)c1nccs1)OC)N(C)C(=O)[C@@H](NC(=O)[C@H](C(C)C)N(C)C)C(C)C [DOLASTATIN-10], the MST (NCI-H446 [6]) is reported as 91 days, the ED50 (leukaemia cell line) is reported as 4.6 10^-5 ug/ml and the IC50 (NCI-H69) is reported as 0.032 nM. For the same compound, the GI50 [1] was 0.01 nM, the MTD [7] was 0.02 mg/kg and the GI50 (NCI-H460) was 0.004 nM. For the same compound, the GI50 (OVCAR-3) was 0.001 nM, the Activity (NCI-H446 [8]) was 5.2 and the IC50 (L1210) was 0.9 nM. It also gave a GI50 (KM-20L2) of 0.006 nM, a GI50 (SF-295) of 0.01 nM and an IC50 (Tubulin [9]) of 1200 nM. For the same compound, the IC50 (NCI-H446 [10]) was 0.032 nM, the MTD [5] was 0.036 mg/kg and the IC50 (Tubulin [11]) was 3 nM. For the same compound, the GI50 (SK-MEL-5) was 0.009 nM, the GI50 (A498) was 0.033 nM and the IC50 (NCI-H82) was 0.032 nM. It also gave an IC50 (NCI-H510A) of 0.032 nM.
